Measurements as given in patent US20200024278A1, “COMPOSITION COMPRISING ANTIBIOTIC COMPOUND AND AN HETEROCYCLIC COMPOUND AND THEIR USE IN PREVENTING OR TREATING BACTERIAL INFECTIONS” (MUTABILIS, priority 2016, published 2020).

Columns and labels:
[1] = test system: KPN UFR42; test: MIC, broth microdilution (CLSI), substance alone or ATB combined with compound at 4 or 8 μg/mL; assay type: cell-based, K. pneumoniae; details: Klebsiella pneumoniae; substance alone; KPN UFR42; read-out: MIC
Procedure: (§1) Compounds of the present invention were assessed against genotyped bacterial strains alone or in combination with an antibacterial. In the assays, MICs of said compounds or combination of antibiotics with fixed concentrations of said compounds (4 or 8 μg/mL) were determined by the broth microdilution method according to the Clinical Laboratory Standards Institute (CLSI-M7-A7). Briefly, compounds alone according to the invention were prepared in DMSO and spotted (2 μL each) on sterile polystyrene plates (Corning, 3788). Combinations of compounds and antibiotics dilutions were prepared in DMSO and spotted (1 μL each) on sterile polystyrene plates (Corning, 3788). Log phase bacterial suspensions were adjusted to a final density of 5·10^5 CFU/mL in cation-adjusted Mueller-Hinton broth (ca-MHB; Becton-Dickinson and Company) and added to each well (98 μL). Assays including Fosfomycin were supplemented with 25 μg/ml of Glucose-6-phosphate. Microplates were incubated for 16-20 h at 35° C. in ambient air. The MIC of the compounds was defined as the lowest concentration of said compounds that prevented bacterial growth as read by visual inspection. The MIC of ATB at each compound concentration was defined as the lowest concentration of ATB that prevented bacterial growth as read by visual inspection.

[2] = test system: KPN BAA-1898; test: as above; assay type: cell-based, K. pneumoniae; details: Klebsiella pneumoniae, BAA1898; substance alone; KPN BAA-1898; read-out: MIC
Procedure: as §1

[3] = test system: SAU 29213; test: as above; assay type: cell-based, S. aureus; details: for MIC ATB combined with compound: compound @8 μg/ml, SAU 29213
In short: (§2)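 Each strain received 5·10^5 CFU/mL of log-phase cells in ca-MHB over DMSO-spotted compound or compound-antibiotic combinations. After 16-20 h at 35° C, growth was scored visually.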

[4] = test system: KPN UFR68; test: Fractional Inhibitory Concentration Index, checkerboard assay; assay type: cell-based, K. pneumoniae
Procedure: (§3) Method 2: Determination of the Fractional Inhibitory Concentration Index
(§4) Serial 2-fold dilutions of each antibiotic tested were prepared in ca-MHB and mixed in each well of a 96-well microtiter plate so that each row (and column) contained a fixed amount of one agent and increasing amounts of the second agent. The range of drug concentrations used in the checkerboard analysis was such that the dilution range encompassed the MIC for each drug used in the analysis. Broth microdilution plates were inoculated with each strain (Table 3) to yield 5.10^5 CFU/mL in a 100 μL final volume and incubated for 18 h at 35° C. in ambient air. Assays including Fosfomycin were supplemented with 25 μg/ml of Glucose-6-phosphate. MICs were determined after overnight incubation, and the fractional inhibitory concentration (FIC) index was calculated for each well. The FIC index (FICI) was calculated for each combination according to the equation FICI=FICa+FICb=(MIC of drug A in combination/MIC of drug A alone)+(MIC of drug B in combination/MIC of drug B alone). The FICI was interpreted as follows: synergy, FICI […]; indifference, 0.5<FIC<4; and antagonism, FICI>4. The checkerboard assays were performed in duplicate.

[5] = test system: ECL P99; test: MIC, broth microdilution (CLSI), substance alone or ATB combined with compound at 4 or 8 μg/mL; assay type: cell-based, E. cloacae; details: Enterobacter cloacae; substance alone; ECL P99; read-out: MIC
In short: as §2

[6] = test system: PAE UFR48; test: as above; assay type: cell-based, P. aeruginosa; details: PAE UFR48; for MIC ATB combined with compound: compound @8 μg/ml
In short: as §2

[7] = test system: PAE UFR90; test: as above; assay type: cell-based, P. aeruginosa; details: PAE UFR90; for MIC ATB combined with compound: compound @8 μg/ml
In short: as §2

[8] = test system: PAE 105250; test: as above; assay type: cell-based, P. aeruginosa; details: PAE 105250; for MIC ATB combined with compound: compound @8 μg/ml
In short: as §2

[9] = test system: ECO 190317; test: Fractional Inhibitory Concentration Index, checkerboard assay; assay type: cell-based, E. coli
Procedure: as §3, §4

[10] = test system: PAE UFR48; test: as above; assay type: cell-based, P. aeruginosa
Procedure: as §3, §4

[11] = test system: PAE UFR90; test: as above; assay type: cell-based, P. aeruginosa
Procedure: as §3, §4

[12] = test system: SPN 49619; test: MIC, broth microdilution (CLSI), substance alone or ATB combined with compound at 4 or 8 μg/mL; assay type: cell-based, S. pneumoniae; details: SPN 49619; for MIC ATB combined with compound: compound @8 μg/ml
In short: as §2

[13] = test system: ECO UFR39; test: as above; assay type: cell-based, E. coli; details: Escherichia coli; substance alone; ECO UFR39; read-out: MIC
In short: as §2

[14] = test system: ECO 190317; test: as above; assay type: cell-based, E. coli; details: Escherichia coli; substance alone; ECO 190317; read-out: MIC
In short: as §2

[15] = test system: ECL P99; test: Fractional Inhibitory Concentration Index, checkerboard assay; assay type: cell-based, E. cloacae
Procedure: as §3, §4

[16] = Pseudomonas aeruginosa, substance alone, read-out: MIC

With `NCCn1c2c(sc1=O)C1CN(C2)C(=O)N1OS(=O)(=O)[O-].[Na+]` (stereo not drawn) [Example 3, sodium and 2,2,2-trifluoroacetate [5-(2-azaniumethyl)-4,9-dioxo-3-thia-5,8,10-triaza-tricyclo[6.2.1.0^2,6]undec-2(6)-en-10-yl] sulfate] the MIC [1] was 16 µg/mL, the MIC [2] was 16 µg/mL and the “MIC ATB combined with compound” value ([3]; ATB ATM) was greater than 32 µg/mL. The “MIC ATB combined with compound” value ([3]; ATB FEP) was 1 µg/mL, the “MIC ATB combined with compound” value ([3]; ATB FOS) was “<=0.125 μg/mL” and the “MIC ATB combined with compound” value ([3]; ATB MEM) was 0.063 µg/mL. The “MIC ATB combined with compound” value ([3]; ATB PIP) was 0.5 µg/mL, the MIC ([3]; Staphylococcus aureus, substance alone, SAU 29213 (MSSA 29213), read-out: MIC) was 32 µg/mL and the FIC index min ([4]; compound +ATM) was 0.049. It also gave an FIC index min ([4]; compound +FEP) of 0.021, an FIC index min ([4]; compound +FOS) of 0.080 and an FIC index min ([4]; compound +MEM) of 0.16. The FIC index min ([4]; compound +PIP) was 0.10, the MIC [5] was 0.5 µg/mL and the “MIC ATB combined with compound” value ([6]; ATB ATM) was 2 µg/mL. For the same compound, the “MIC ATB combined with compound” value ([6]; ATB FEP) was less than 0.031 µg/mL, the “MIC ATB combined with compound” value ([6]; ATB FOS) was 2 µg/mL and the “MIC ATB combined with compound” value ([6]; ATB MEM) was “<=0.031 μg/mL”. The “MIC ATB combined with compound” value ([6]; ATB PIP) was less than 0.031 µg/mL, the MIC [6, 16] was 8 µg/mL and the “MIC ATB combined with compound” value ([7]; ATB ATM) was less than 0.031 µg/mL. For the same compound, the “MIC ATB combined with compound” value ([7]; ATB FEP) was less than 0.031 µg/mL, the “MIC ATB combined with compound” value ([7]; ATB FOS) was less than 0.125 µg/mL and the “MIC ATB combined with compound” value ([7]; ATB MEM) was less than 0.031 µg/mL. The “MIC ATB combined with compound” value ([7]; ATB PIP) was less than 0.031 µg/mL, the MIC [7, 16] was 8 µg/mL and the “MIC ATB combined with compound” value ([8]; ATB ATM) was less than 0.031 µg/mL. For the same compound, the “MIC ATB combined with compound” value ([8]; ATB FEP) was less than 0.031 µg/mL, the “MIC ATB combined with compound” value ([8]; ATB FOS) was 16 µg/mL and the “MIC ATB combined with compound” value ([8]; ATB MEM) was 0.063 µg/mL. The “MIC ATB combined with compound” value ([8]; ATB PIP) was 0.063 µg/mL, the MIC [8, 16] was 8 µg/mL and the FIC index min ([9]; compound +ATM) was 0.27. It also gave an FIC index min ([9]; compound +FEP) of 0.19, an FIC index min ([9]; compound +FOS) of 0.66 and an FIC index min ([9]; compound +MEM) of 0.56. The FIC index min ([9]; compound +PIP) was no more than 0.5, the FIC index min ([10]; compound +ATM) was 0.13 and the FIC index min ([10]; compound +FEP) was 0.50. It also gave an FIC index min ([10]; compound +FOS) of 0.34, an FIC index min ([10]; compound +MEM) of 0.75 and an FIC index min ([10]; compound +PIP) of 0.31. For the same compound, the FIC index min ([11]; compound +ATM) was 0.75, the FIC index min ([11]; compound +FEP) was 0.32 and the FIC index min ([11]; compound +FOS) was 0.88. The FIC index min ([11]; compound +MEM) was 0.75, the FIC index min ([11]; compound +PIP) was 0.63 and the “MIC ATB combined with compound” value ([12]; ATB ATM) was less than 0.031 µg/mL. The “MIC ATB combined with compound” value ([12]; ATB FEP) was less than 0.031 µg/mL, the “MIC ATB combined with compound” value ([12]; ATB FOS) was “<=0.125 μg/mL” and the “MIC ATB combined with compound” value ([12]; ATB MEM) was less than 0.031 µg/mL. For the same compound, the “MIC ATB combined with compound” value ([12]; ATB PIP) was less than 0.031 µg/mL, the MIC ([12]; Streptococcus pneumoniae, substance alone, read-out: MIC) was 1 µg/mL and the MIC [13] was 0.5 µg/mL. It also gave an MIC [14] of 0.25 µg/mL, an FIC index min ([15]; compound +ATM) of 0.28 and an FIC index min ([15]; compound +FEP) of 0.31. The FIC index min ([15]; compound +FOS) was no more than 0.13, the FIC index min ([15]; compound +MEM) was 0.54 and the FIC index min ([15]; compound +PIP) was 0.13.
